Data: patent publication US20070142396A1, “Treatment of pain with 1-[3-[4-(3-chlorophenyl)-1-piperazinyl]propyl]-5-methoxy-3,4-dihydro-2(1H)-quinolone or salt thereof” (Vela Pharmaceuticals, Inc., priority 2005, published 2007)

Test system: rats with spinal nerve ligature (Chung neuropathic pain model)
Test: Chung spinal nerve ligation (L5 and L6) neuropathic pain model, tactile stimulation with electronic Von Frey probe (Example 2)
Type: in vivo, rat
Details: for Force Inducing Paw Withdrawal (g) Lesioned Paw / Force Inducing Paw Withdrawal (g) Non-lesioned Paw: hypersensitivity test after 8 days of twice daily administration
Source text: The Chung neuropathic pain model (Kim and Chung, Pain, 50: 355-363, 1992), employs spinal nerve ligation (SNL) in a rat. Tight ligature of spinal nerves in a rat is associated with hyperalgesia, allodynia and spontaneous pain. Antihyperalgesics reduce these chronic signs of pain hypersensitivity. Thus, the Chung model permits testing of the antihyperalgesic activity of compounds in rats with neuropathic pain. The Chung model constitutes a model for peripheral neuropathic pain in humans, and was employed as follows.
Male Rj: Wistar (Han) rats, weighing 264-369 g at the beginning of the experiment, were obtained from Elevage Janvier, 53940 Le Genest-Saint-Isle, France. The rats were acclimatized to laboratory conditions for at least 5 days before the surgery phase of the experiment. The rats were housed in groups of five in macrolon cages (41×25×14 cm) on wood litter (Litalabo—SPPS, 95100 Argenteuil, France) with free access to food (code 113—SAFE, 91360 Epinay-sur-Orge, France) and water until tested. The animal houses were maintained under artificial lighting (12 hours) between 7:00 AM and 7:00 PM in a controlled ambient temperature of 21±3° C., and with relative humidity maintained at 40-70%.
Rats (264-369 g) were anesthetized with sodium pentobarbital (50 mg/kg i.p.), and an incision at the L4-S2 level was made to expose the left L5 and L6 spinal nerves. A ligature was tied tightly around each nerve. The wound was then sutured. The rats received an i.m. injection of 50,000 IU penicillin G and were allowed to recover. At least 2 weeks after the surgery, when the chronic state was fully installed, rats were submitted consecutively to tactile and thermal stimulation of both the non-lesioned and the lesioned hindpaws.
Doses of OPC-14523 were prepared in stock solutions (weight per volume, W/V), then in dilutions (volume per volume, V/V), as appropriate. The compound was dispersed in 0.5% tragacanth in distilled water. Morphine was dissolved in physiological saline as a reference standard for treatment of pain. The solutions for the test and reference substances were prepared fresh on the day of the experiment.
The vehicle, OPC-14523, and reference (morphine) compound were each administered in a volume of 5 ml/kg body weight. The doses of OPC-14523 were expressed in mg of substance per kg body weight and administered orally (p.o.). The vehicle control was also administered orally. The dose of morphine was expressed in mg of hydrochloride salt per kg body weight and administered i.p.
Each animal was tested at 30 minutes, 1 hour, 2 hours and 4 hours after the administration of a substance. Testing occurred in the morning.
To evaluate chronic drug administration and hypersensitivity induction, animals received a second substance treatment in the afternoon, after acute testing. The animals then received twice-daily substance treatment for an additional 9 days. To test for induction of hypersensitivity, the animals were tested, on the ninth day, 30 minutes before the first substance administration in the morning. The effect of chronic administration was tested on the tenth day 30 minutes, 1 hour, 2 hours and 4 hours after the administration of the substance in the morning.
For tactile stimulation, the animal was placed under an inverted Plexiglas® box (17×11×14 cm) on a grid floor. The tip of an electronic Von Frey probe (Bioseb, Model 1610, Chaville, France) was applied with increasing pressure to the non-lesioned hindpaw or the lesioned hindpaw. The force required to induce paw withdrawal was automatically recorded. This procedure was carried out three times for each paw, and the mean force per paw was calculated to provide basic scores per animal.
Prior to receiving drug treatment, all animals were submitted to tactile stimulation and assigned to treatment groups, matched on the basis of their pain response. Each treatment group consisted of eight rats. The testing was performed blind. […]

induction of hypersensitivity (repeated administration, tactile and thermal stimulation): does not induce hypersensitivity
Structure (SMILES): COc1cccc2c1CCC(=O)N2CCCN1CCN(c2cccc(Cl)c2)CC1 [OPC-14523, 1-[3-[4-(3-chlorophenyl)-1-piperazinyl]propyl]-5-methoxy-3,4-dihydro-2(1H)-quinolone]
change of force inducing paw withdrawal vs vehicle (acute, 100 mg/kg p.o., lesioned paw, 1 hour): 107%
effect on force inducing paw withdrawal (acute, 100 mg/kg p.o., lesioned paw, 2 hours): tended to increase
change of force inducing paw withdrawal vs vehicle (acute, 100 mg/kg p.o., non-lesioned paw, 4 hours, p<0.01): −27%
effect on force inducing paw withdrawal (acute, p.o., other doses or time points): no significant effects
effect on force inducing paw withdrawal (chronic, twice daily, after 10 days, p.o., lesioned or non-lesioned paw): did not have clear effects
Force Inducing Paw Withdrawal (g) Lesioned Paw (10 mg/kg p.o.): 17.6 (NS) g
Force Inducing Paw Withdrawal (g) Non-lesioned Paw (10 mg/kg p.o.): 72.9 (NS) g
Force Inducing Paw Withdrawal (g) Lesioned Paw (30 mg/kg p.o.): 15.1 (NS) g
Force Inducing Paw Withdrawal (g) Non-lesioned Paw (30 mg/kg p.o.): 83.5 (NS) g
Force Inducing Paw Withdrawal (g) Lesioned Paw (100 mg/kg p.o.): 16.2 (NS) g
Force Inducing Paw Withdrawal (g) Non-lesioned Paw (100 mg/kg p.o.): 78.1 (NS) g
effect on force inducing paw withdrawal vs vehicle control (hypersensitivity test, repeated treatment at three different doses, lesioned or non-lesioned paw): no significant effects
